According to patent US20030114456A1, “Novel heterocylic compounds with anti-inflamatory activity” (priority 2000, published 2003):
Structures can show the parent of a compound that is named as a salt.

Legend:
human COX-2 = target: T1, human COX-2 (Homo sapiens, UniProt P35354); test: Inhibition of COX-2 activity (PGE2 production after arachidonic acid) in 143.98.2 osteosarcoma cells; type: cell-based; conditions: 0.1 μM test compound, PGE2 production after 10 μM arachidonic acid
T1 construct: human COX-2 (143.98.2 from human osteosarcoma), respectively; endogenous in cells; host or cells: 143.98.2 (human osteosarcoma)
T1 sequence (P35354 18-604): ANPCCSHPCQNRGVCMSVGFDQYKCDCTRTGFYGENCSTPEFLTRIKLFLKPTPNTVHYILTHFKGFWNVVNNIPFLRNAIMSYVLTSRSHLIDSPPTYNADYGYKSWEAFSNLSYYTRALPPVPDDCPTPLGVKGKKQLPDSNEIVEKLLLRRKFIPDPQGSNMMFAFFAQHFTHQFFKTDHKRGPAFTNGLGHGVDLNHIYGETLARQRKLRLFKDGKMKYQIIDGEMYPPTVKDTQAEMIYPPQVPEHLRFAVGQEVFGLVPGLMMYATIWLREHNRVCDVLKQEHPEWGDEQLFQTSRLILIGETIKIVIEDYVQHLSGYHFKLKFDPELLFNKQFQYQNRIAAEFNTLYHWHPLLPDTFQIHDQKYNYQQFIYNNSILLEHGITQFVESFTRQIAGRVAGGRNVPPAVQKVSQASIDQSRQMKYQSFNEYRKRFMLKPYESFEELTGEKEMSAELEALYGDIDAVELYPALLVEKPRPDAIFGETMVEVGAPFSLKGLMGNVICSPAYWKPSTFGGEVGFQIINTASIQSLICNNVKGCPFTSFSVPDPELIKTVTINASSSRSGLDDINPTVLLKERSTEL
Method: (§1) Inhibition of cyclooxygenase-1 (COX-1) and cyclooxygenase-2 (COX-2) Activity in Human Cell Lines
(§2) The inhibition of COX-1 and COX-2 is determined by assessing the PGE2 production after stimulation with arachidonic acid in cell lines expressing human COX-1 (U-937 from human histiocitic lymphoma) and human COX-2 (143.98.2 from human osteosarcoma), respectively.
(§3) The osteosarcoma-derived cells were cultured in 1 mL of DMEM culture medium supplemented with 10% fetal calf serum, in 24-well multidishes until confluence. U-937 cells were cultured in RPMI medium supplemented with 10% fetal calf serum in flasks.
(§4) To evaluate COX-2 activity, the medium was removed and replaced with Hepes-buffered saline solution (HBSS) without Ca^2+/Mg^2+ (2×10^5 cells/well). To evaluate COX-1 activity, the medium was removed and U-937 cells were resuspended to a final density of 3×10^6 cells/mL in HBSS without Ca^2+/Mg^2+ (1 mL/well, in 24-well multidishes). 1 μL of a solution of the test compound dissolved in DMSO or vehicle was added, and the samples were incubated for 15 min at 37° C. (5% CO2 and 95% humidity). Arachidonic acid was added (final concentration: 10 μM) and the samples were incubated for 10 min more. Next the reactions were quenched by adding indomethacin (8 mM, 30 μL). The amount of PGE2 in the supernatant was determined by specific enzymatic immunoassay (Kit Prostaglandin E2, Biotrak EIA system RPN222, Amersham Pharmacia Biotech). All the assays were performed in triplicate.
(§5) The results obtained with representative compounds of the present invention are shown in the following table, where the % of inhibition of COX-1 and COX-2 activity at a concentration of 0.1 μM of test compound are reported.

human COX-1 = target: T2, human COX-1 (Homo sapiens, UniProt P23219); test: Inhibition of COX-1 activity (PGE2 production after arachidonic acid) in U-937 cells; type: cell-based; conditions: 0.1 μM test compound, PGE2 production after 10 μM arachidonic acid
T2 construct: cell lines expressing human COX-1 (U-937 from human histiocitic lymphoma); endogenous in cells; host or cells: U-937 (human histiocytic lymphoma)
T2 sequence (P23219 24-599): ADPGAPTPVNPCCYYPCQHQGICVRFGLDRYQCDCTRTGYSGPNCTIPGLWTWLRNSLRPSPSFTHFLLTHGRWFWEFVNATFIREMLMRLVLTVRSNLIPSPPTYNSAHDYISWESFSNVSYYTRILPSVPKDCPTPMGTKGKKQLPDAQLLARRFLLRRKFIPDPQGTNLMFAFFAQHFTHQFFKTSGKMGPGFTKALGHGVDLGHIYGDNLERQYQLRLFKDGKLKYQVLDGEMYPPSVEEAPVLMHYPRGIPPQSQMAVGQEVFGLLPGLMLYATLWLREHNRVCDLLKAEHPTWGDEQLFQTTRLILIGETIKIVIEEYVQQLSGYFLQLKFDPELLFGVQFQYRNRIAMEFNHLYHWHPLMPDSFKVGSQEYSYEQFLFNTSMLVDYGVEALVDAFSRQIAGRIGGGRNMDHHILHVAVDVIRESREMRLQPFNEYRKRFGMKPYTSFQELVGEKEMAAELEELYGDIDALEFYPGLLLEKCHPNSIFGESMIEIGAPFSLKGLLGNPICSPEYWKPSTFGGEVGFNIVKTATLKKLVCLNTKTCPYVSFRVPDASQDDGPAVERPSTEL
Method: as §1, §2, §3, §4, §5

inhibition at 0.1 µM (human COX-2) [%]	inhibition at 0.1 µM (human COX-1) [%]	Structure (SMILES)
61	0	CS(=O)(=O)c1ccc(-n2cnc(Cl)c2-c2ccc(N3CCCC3)cc2)cc1 [Example 1, 4-Chloro-1-(4-methylsulfonylphenyl)-5-[4-(1-pyrrolidinyl)phenyl]imidazole]
75	11	CS(=O)(=O)c1ccc(-n2cnc(Cl)c2-c2ccc(N3CCC(O)C3)cc2)cc1 (stereo not shown) [Example 3, 4-Chloro-5-[4-(3-hydroxypyrrolidin-1-yl)phenyl]-1-(4-methylsulfonylphenyl)imidazole]
72	0	CC1CCCN1c1ccc(-c2c(Cl)ncn2-c2ccc(S(C)(=O)=O)cc2)cc1 (stereo not shown) [Example 4, 4-Chloro-5-[4-(2-methylpyrrolidin-1-yl)phenyl]-1-(4-methylsulfonylphenyl)imidazole]
70	0	NS(=O)(=O)c1ccc(-n2cnc(Cl)c2-c2ccc(N3CCCC3)cc2)cc1 [Example 5, 4-[4-Chloro-5-[4-(1-pyrrolidinyl)phenyl]imidazol-1-yl]benzenesulfonamide, hydrochloride]
89	0	CS(=O)(=O)c1ccc(-n2cnc(Cl)c2-c2ccc(N3CCCC3)c(Cl)c2)cc1 [Example 6, 4-Chloro-5-[3-chloro-4-(1-pyrrolidinyl)phenyl]-1-(4-methylsulfonylphenyl)imidazole]
72	0	CS(=O)(=O)c1ccc(-n2cnc(Cl)c2-c2ccc(N3C(=O)CCC3=O)cc2)cc1 [Example 7, 4-Chloro-1-(4-methylsulfonylphenyl)-5-[4-(2,5-dioxopyrrolidin-1-yl)phenyl]imidazole]
76	0	CS(=O)(=O)c1ccc(-n2cnc(Cl)c2-c2ccc(N3CC=CC3=O)cc2)cc1 [Example 8, 4-Chloro-1-(4-methylsulfonylphenyl)-5-[4-(2-oxo-3-pyrrolin-1-yl)phenyl]imidazole]
72	0	CS(=O)(=O)c1ccc(-n2cnc(Cl)c2-c2ccc(N3CCOC3=O)cc2)cc1 [Example 9, 4-Chloro-1-(4-methylsulfonylphenyl)-5-[4-(2-oxooxazolidin-3-yl)phenyl]imidazole]
61	0	CS(=O)(=O)c1ccc(-n2cnc(Cl)c2-c2ccc(N3CCCC3=O)cc2)cc1 [Example 10, 4-Chloro-1-(4-methylsulfonylphenyl)-5-[4-(2-oxopyrrolidin-1-yl)phenyl]imidazole]
79	0	CS(=O)(=O)c1ccc(-n2cnc(Cl)c2-c2ccc(N3CCCC3)nc2)cc1 [Example 12, 4-Chloro-1-(4-methylsulfonylphenyl)-5-[6-(1-pyrrolidinyl)-3-pyridyl]imidazole]
49	0	CS(=O)(=O)c1ccc(C2=C(c3ccc(N4CC=CC4=O)cc3)C(=O)OC2)cc1 [Example 14, 4-(4-Methylsulfonylphenyl)-3-[4-(2-oxo-3-pyrrolin-1-yl)phenyl]-5H-furan-2-one]
81	17	CS(=O)(=O)c1ccc(C2=C(c3ccc(N4CCCC4)cc3)C(=O)OC2)cc1 [Example 15, 4-(4-Methylsulfonylphenyl)-3-[4-(1-pyrrolidinyl)phenyl]-5H-furan-2-one]
93	0	CS(=O)(=O)c1ccc(C2=C(c3ccc(N4CCCC4)c(Cl)c3)C(=O)OC2)cc1 [Example 16, 3-[3-Chloro-4-(1-pyrrolidinyl)phenyl]-4-(4-methylsulfonylphenyl)-5H-furan-2-one]
81	0	CS(=O)(=O)c1ccc(C2=C(c3ccc(N4CCCC4)nc3)C(=O)OC2)cc1 [Example 17, 4-(4-Methylsulfonylphenyl)-3-[6-(1-pyrrolidinyl)-3-pyridyl]-5H-furan-2-one]
